# Experiment: Toxicity of the inducer doxycycline in mice
# Assay type: in vivo, BALB/c mice
# Details: 200 mg/kg dox i.p.; also seen in control mice without vector
# Experimental: In view of the fact that the luciferase activity levels obtained in the induced state were very low, the decision was made to increase the dose of inducer. To this end, two consecutive doses of 100 and 200 mg/kg of dox were administered by i.p. route, separated by a 14-day period.
# The luciferase activity in the hepatic area was measured at 24 hours post-induction. […] These symptoms were also observed in the control mice, those without a vector. The system's maximum rate of induction is reached at a dose of 100 mg/kg of dox, and is approximately 10-fold.
structure (smiles),measurement,value
"C[C@H]1c2cccc(O)c2C(=O)C2=C(O)[C@]3(O)C(=O)C(C(N)=O)=C(O)[C@@H](N(C)C)[C@@H]3[C@@H](O)[C@@H]21 [dox, doxycycline]",dox-mediated toxicity,several mice died
